# Test results taken from US12559529B2, “NPY2 receptor agonists” (Boehringer Ingelheim International GmbH, priority 2019, dated 2026).
# *1 amine or outer side, *2 acyl side, *3 side chain or, on linkers, in order; H or OH if unused. Where a SMILES comes first, the peptide text is derived from it. Side-chain parts run from the residue outwards. The star is where a group is joined. C18 diacid = O=C(O)CCCCCCCCCCCCCCCCC(=O)*; γGlu = O=C(O)[C@H](CCC(=O)[*:2])N[*:1]; Isovaleryl = CC(C)CC(=O)*; AEEA = NCCOCCOCC(=O)O
# Molecular target: T1, Human Neuropeptide Y2 Receptor (Homo sapiens, UniProt P49146)
# T1 construct: purchased CHEMICON HTS066M
# T1 sequence (P49146 1-381): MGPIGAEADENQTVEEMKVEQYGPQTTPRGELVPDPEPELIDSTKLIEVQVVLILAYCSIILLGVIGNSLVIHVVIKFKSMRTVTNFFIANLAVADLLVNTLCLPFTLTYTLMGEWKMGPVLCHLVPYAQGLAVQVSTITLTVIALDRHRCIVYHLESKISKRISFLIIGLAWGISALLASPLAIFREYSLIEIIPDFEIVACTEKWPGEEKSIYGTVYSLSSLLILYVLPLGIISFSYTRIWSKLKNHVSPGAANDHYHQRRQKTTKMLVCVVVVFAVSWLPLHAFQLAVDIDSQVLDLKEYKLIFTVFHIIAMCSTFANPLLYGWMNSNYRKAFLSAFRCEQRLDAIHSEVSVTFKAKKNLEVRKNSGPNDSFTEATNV
# Assay: Radioligand binding competition assay (RLB)
# Conditions: Table 3; human 125I-PYY (1-36) 0.02 nM, Y2 receptor membranes; read-out: Ki
# How it was run: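 Filtration format; Y2R membrane prep 0.5 μg/well; buffer 50 mM HEPES/5 mM MgCl2/1 mM CaCl2/0.2% ovalbumin pH 7.4; 2 h RT, shaking. Harvest on PEI-soaked GF/C, ice-cold HEPES/500 mM NaCl washes, scintillation count. IC50 by nonlinear fit.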
row,SMILES,Ki [nM]
1,"CC(C)CC(=O)N[C@@H](C)C(=O)N1CCC[C@H]1C(=O)N[C@@H](CCC(=O)O)C(=O)N[C@@H](CCCCNC(=O)COCCOCCNC(=O)COCCOCCNC(=O)CC[C@H](NC(=O)CCCCCCCCCCCCCCCCC(=O)O)C(=O)O)C(=O)N1CCC[C@H]1C(=O)N[C@@H](CCC(=O)O)C(=O)N[C@@H](CCC(=O)O)C(=O)N[C@@H](CC(=O)O)C(=O)N[C@@H](C)C(=O)N[C@@H](CO)C(=O)N1CCC[C@H]1C(=O)N[C@@H](CCC(=O)O)C(=O)N[C@@H](CCC(=O)O)C(=O)N[C@@H](C)C(=O)N[C@@H](CCC(N)=O)C(=O)N[C@@H](CCCNC(=N)N)C(=O)N[C@@H](Cc1ccc(O)cc1)C(=O)N[C@@H](Cc1ccc(O)cc1)C(=O)N[C@H](C(=O)N[C@@H](CO)C(=O)N[C@@H](CC(C)C)C(=O)N[C@@H](CCCNC(=N)N)C(=O)N[C@@H](Cc1c[nH]cn1)C(=O)N[C@@H](Cc1ccc(O)cc1)C(=O)N[C@@H](Cc1ccc(O)cc1)C(=O)N[C@@H](CC(N)=O)C(=O)N[C@@H](Cc1c[nH]c2ccccc12)C(=O)N[C@@H](CC(C)C)C(=O)N[C@H](C(=O)N[C@@H](CCCNC(=N)N)C(=O)N[C@@H](CCC(N)=O)C(=O)N[C@@H](CCCNC(=N)N)C(=O)N[C@@H](Cc1ccc(O)cc1)C(N)=O)[C@@H](C)O)C(C)C [Compound 55, N{alpha-4}-(3-methylbutanoyl)-N{epsilon-7}-[2-(2-{2-[2-(2-{2-[(4S)-4-carboxy-4-(17-carboxyheptadecanamido)butanamido]ethoxy}ethoxy)acetamido]ethoxy}ethoxy)acetamido]-[4A,7K,9E,17A,18Q,22V,28Y,30W,31L]hPYY (4-36)]",3.35
2,"CC(C)CC(=O)N[C@@H](C)C(=O)N1CCC[C@H]1C(=O)N[C@@H](CCC(=O)O)C(=O)N[C@@H](CCCCNC(=O)COCCOCCNC(=O)COCCOCCNC(=O)CC[C@H](NC(=O)CCCCCCCCCCCCCCCCC(=O)O)C(=O)O)C(=O)N1CCC[C@H]1C(=O)N[C@@H](CCC(=O)O)C(=O)N[C@@H](CCC(=O)O)C(=O)N[C@@H](C)C(=O)N[C@@H](C)C(=O)N[C@@H](CO)C(=O)N1CCC[C@H]1C(=O)N[C@@H](CCC(=O)O)C(=O)N[C@@H](CCC(=O)O)C(=O)N[C@@H](CC(C)C)C(=O)N[C@@H](CCC(=O)O)C(=O)N[C@@H](CCC(N)=O)C(=O)N[C@@H](Cc1ccc(O)cc1)C(=O)N[C@@H](Cc1ccc(O)cc1)C(=O)N[C@H](C(=O)N[C@@H](CO)C(=O)N[C@@H](CC(C)C)C(=O)N[C@@H](CCCNC(=N)N)C(=O)N[C@@H](Cc1c[nH]cn1)C(=O)N[C@@H](Cc1ccc(O)cc1)C(=O)N[C@@H](Cc1ccc(O)cc1)C(=O)N[C@@H](CC(N)=O)C(=O)N[C@@H](Cc1c[nH]c2ccccc12)C(=O)N[C@@H](CC(C)C)C(=O)N[C@H](C(=O)N[C@@H](CCCNC(=N)N)C(=O)N[C@@H](CCC(N)=O)C(=O)N[C@@H](CCCNC(=N)N)C(=O)N[C@@H](Cc1ccc(O)cc1)C(N)=O)[C@@H](C)O)C(C)C [Compound 60, N{alpha-4}-(3-methylbutanoyl)-N{epsilon-7}-[2-(2-{2-[2-(2-{2-[(4S)-4-carboxy-4-(17-carboxyheptadecanamido)butanamido]ethoxy}ethoxy)acetamido]ethoxy}ethoxy)acetamido]-[4A,7K,9E,11A,18E,19Q,22V,28Y,30W,31L]hPYY (4-36)] (Isovaleryl-APEK([AEEA-AEEA-γGlu-C18 diacid])PEEAASPEELEQYYVSLRHYYNWLTRQRY-NH2)",5.95
3,"CC[C@H](C)[C@H](NC(=O)[C@H](CCC(=O)O)NC(=O)[C@H](CCC(=O)O)NC(=O)[C@@H]1CCCN1C(=O)[C@H](CO)NC(=O)[C@H](C)NC(=O)[C@H](CC(=O)O)NC(=O)[C@H](CCC(=O)O)NC(=O)[C@@H]1CCCN1C(=O)[C@@H]1CCCN1C(=O)[C@H](CCCCNC(=O)COCCOCCNC(=O)COCCOCCNC(=O)CC[C@H](NC(=O)CCCCCCCCCCCCCCCCC(=O)O)C(=O)O)NC(=O)[C@H](CCC(=O)O)NC(=O)[C@@H]1CCCN1C(=O)[C@H](C)NC(=O)CC(C)C)C(=O)N[C@@H](CCC(N)=O)C(=O)N[C@@H](CCCNC(=N)N)C(=O)N[C@@H](Cc1ccc(O)cc1)C(=O)N[C@@H](Cc1ccc(O)cc1)C(=O)N[C@H](C(=O)N[C@@H](CO)C(=O)N[C@@H](CC(C)C)C(=O)N[C@@H](CCCNC(=N)N)C(=O)N[C@@H](Cc1c[nH]cn1)C(=O)N[C@@H](Cc1ccc(O)cc1)C(=O)N[C@@H](Cc1ccc(O)cc1)C(=O)N[C@@H](CC(N)=O)C(=O)N[C@@H](Cc1c[nH]c2ccccc12)C(=O)N[C@@H](CC(C)C)C(=O)N[C@H](C(=O)N[C@@H](CCCNC(=N)N)C(=O)N[C@@H](CCC(N)=O)C(=O)N[C@@H](CCCNC(=N)N)C(=O)N[C@@H](Cc1ccc(O)cc1)C(N)=O)[C@@H](C)O)C(C)C [Compound 61, N{alpha-4}-(3-methylbutanoyl)-N{epsilon-7}-[2-(2-{2-[2-(2-{2-[(4S)-4-carboxy-4-(17-carboxyheptadecanamido)butanamido]ethoxy}ethoxy)acetamido]ethoxy}ethoxy)acetamido]-[4A,7K,9P,17I,18Q,22V,28Y,30W,31L]hPYY (4-36)]",0.4
4,"CC(C)CC(=O)N[C@@H](C)C(=O)N1CCC[C@H]1C(=O)N[C@@H](CCC(=O)O)C(=O)N[C@@H](CCCCNC(=O)COCCOCCNC(=O)COCCOCCNC(=O)CC[C@H](NC(=O)CCCCCCCCCCCCCCCCC(=O)O)C(=O)O)C(=O)N1CCC[C@H]1C(=O)N[C@@H](CCC(=O)O)C(=O)N[C@@H](CCC(=O)O)C(=O)N[C@@H](CC(=O)O)C(=O)N[C@@H](C)C(=O)N[C@@H](CO)C(=O)N1CCC[C@H]1C(=O)N[C@@H](CCC(=O)O)C(=O)N[C@@H](CCC(=O)O)C(=O)N[C@@H](CC(C)C)C(=O)N[C@@H](CCC(N)=O)C(=O)N[C@@H](CCCNC(=N)N)C(=O)N[C@@H](Cc1ccc(O)cc1)C(=O)N[C@@H](Cc1ccc(O)cc1)C(=O)N[C@H](C(=O)N[C@@H](CO)C(=O)N[C@@H](CC(C)C)C(=O)N[C@@H](CCCNC(=N)N)C(=O)N[C@@H](C)C(=O)N[C@@H](Cc1ccc(O)cc1)C(=O)N[C@@H](Cc1ccc(O)cc1)C(=O)N[C@@H](CC(N)=O)C(=O)N[C@@H](Cc1c[nH]c2ccccc12)C(=O)N[C@@H](CC(C)C)C(=O)N[C@H](C(=O)N[C@@H](CCCNC(=N)N)C(=O)N[C@@H](CCC(N)=O)C(=O)N[C@@H](CCCNC(=N)N)C(=O)N[C@@H](Cc1ccc(O)cc1)C(N)=O)[C@@H](C)O)C(C)C [Compound 63, N{alpha-4}-(3-methylbutanoyl)-N{epsilon-7}-[2-(2-{2-[2-(2-{2-[(4S)-4-carboxy-4-(17-carboxyheptadecanamido)butanamido]ethoxy}ethoxy)acetamido]ethoxy}ethoxy)acetamido]-[4A,7K,9E,18Q,22V,26A,28Y,30W,31L]hPYY (4-36)]",3.13

# Second part, the compound after the results:
row,Ki [nM],SMILES
1,1.02,"CC[C@H](C)[C@H](NC(=O)[C@H](CCC(=O)O)NC(=O)[C@@H](NC(=O)[C@H](Cc1ccc(O)cc1)NC(=O)[C@H](Cc1ccc(O)cc1)NC(=O)[C@H](CCCNC(=N)N)NC(=O)[C@H](CCC(N)=O)NC(=O)[C@H](CC(C)C)NC(=O)[C@H](CCC(=O)O)NC(=O)[C@H](CCC(=O)O)NC(=O)[C@@H]1CCCN1C(=O)[C@H](CO)NC(=O)[C@H](C)NC(=O)[C@H](CC(=O)O)NC(=O)[C@H](CCC(=O)O)NC(=O)[C@H](CCC(=O)O)NC(=O)[C@@H]1CCCN1C(=O)[C@H](CCCCNC(=O)COCCOCCNC(=O)COCCOCCNC(=O)CC[C@H](NC(=O)CCCCCCCCCCCCCCCCC(=O)O)C(=O)O)NC(=O)[C@H](CCC(=O)O)NC(=O)[C@@H]1CCCN1C(=O)[C@H](C)NC(=O)CC(C)C)C(C)C)C(=O)N[C@@H](CCCNC(=N)N)C(=O)N[C@@H](Cc1c[nH]cn1)C(=O)N[C@@H](Cc1ccc(O)cc1)C(=O)N[C@@H](Cc1ccc(O)cc1)C(=O)N[C@@H](CC(N)=O)C(=O)N[C@@H](Cc1c[nH]c2ccccc12)C(=O)N[C@@H](CC(C)C)C(=O)N[C@H](C(=O)N[C@@H](CCCNC(=N)N)C(=O)N[C@@H](CCC(N)=O)C(=O)N[C@@H](CCCNC(=N)N)C(=O)N[C@@H](Cc1ccc(O)cc1)C(N)=O)[C@@H](C)O [Compound 65, N{alpha-4}-(3-methylbutanoyl)-N{epsilon-7}-[2-(2-{2-[2-(2-{2-[(4S)-4-carboxy-4-(17-carboxyheptadecanamido)butanamido]ethoxy}ethoxy)acetamido]ethoxy}ethoxy)acetamido]-[4A,7K,9E,18Q,22V,23E,24I,28Y,30W,31L]hPYY (4-36)]"
2,4.37,"CC(C)CC(=O)N[C@@H](C)C(=O)N1CCC[C@H]1C(=O)N[C@@H](CCC(=O)O)C(=O)N[C@@H](CCCCNC(=O)COCCOCCNC(=O)COCCOCCNC(=O)CC[C@H](NC(=O)CCCCCCCCCCCCCCCCC(=O)O)C(=O)O)C(=O)N1CCC[C@H]1C(=O)N[C@@H](CCC(=O)O)C(=O)N[C@@H](CCC(=O)O)C(=O)N[C@@H](CC(=O)O)C(=O)N[C@@H](CO)C(=O)N[C@@H](C)C(=O)N1CCC[C@H]1C(=O)N[C@@H](CCC(=O)O)C(=O)N[C@@H](CCC(=O)O)C(=O)N[C@@H](CC(C)C)C(=O)N[C@@H](CCC(N)=O)C(=O)N[C@@H](CCCNC(=N)N)C(=O)N[C@@H](Cc1ccc(O)cc1)C(=O)N[C@@H](Cc1ccc(O)cc1)C(=O)N[C@H](C(=O)N[C@@H](CO)C(=O)N[C@@H](CC(C)C)C(=O)N[C@@H](CCCNC(=N)N)C(=O)N[C@@H](Cc1c[nH]cn1)C(=O)N[C@@H](Cc1ccc(O)cc1)C(=O)N[C@@H](Cc1ccc(O)cc1)C(=O)N[C@@H](CC(N)=O)C(=O)N[C@@H](Cc1c[nH]c2ccccc12)C(=O)N[C@@H](CC(C)C)C(=O)N[C@H](C(=O)N[C@@H](CCCNC(=N)N)C(=O)N[C@@H](CCC(N)=O)C(=O)N[C@@H](CCCNC(=N)N)C(=O)N[C@@H](Cc1ccc(O)cc1)C(N)=O)[C@@H](C)O)C(C)C [Compound 67, N{alpha-4}-(3-methylbutanoyl)-N{epsilon-7}-[2-(2-{2-[2-(2-{2-[(4S)-4-carboxy-4-(17-carboxyheptadecanamido)butanamido]ethoxy}ethoxy)acetamido]ethoxy}ethoxy)acetamido]-[4A,7K,9E,12S,13A,18Q,22V,28Y,30W,31L]hPYY (4-36)]"
